# Measured values: patent publication US11976083B2, “Inhibitors of peptidylarginine deiminases” (Gilead Sciences, Inc., priority 2020, dated 2024)
# Target: T1, human PAD4 (Homo sapiens, UniProt Q9UM07)
# T1 construct: human PAD4 (NM_012387), A2-P663, was PCR amplified; His-SUMO (N, cleaved yes); made in house; host or cells: E. coli BL21(DE3)
# Experiment: In vitro PAD4 BAEE biochemical assay
# Conditions: BAEE substrate 3 mM, 5 nM PAD4, 2 mM calcium chloride; geometric mean of multiple experiments
# Method in brief: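 Assay was run at 25 °C using 3 mM BAEE and 5 nM human PAD4 after a 30 min compound preincubation; ammonia produced over 2 h was quantified by OPA-derived fluorescence. Full inhibition was defined by 50 µM BB-Cl-Amidine, and IC50 came from variable-slope nonlinear regression.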
# T1 sequence (Q9UM07 2-663): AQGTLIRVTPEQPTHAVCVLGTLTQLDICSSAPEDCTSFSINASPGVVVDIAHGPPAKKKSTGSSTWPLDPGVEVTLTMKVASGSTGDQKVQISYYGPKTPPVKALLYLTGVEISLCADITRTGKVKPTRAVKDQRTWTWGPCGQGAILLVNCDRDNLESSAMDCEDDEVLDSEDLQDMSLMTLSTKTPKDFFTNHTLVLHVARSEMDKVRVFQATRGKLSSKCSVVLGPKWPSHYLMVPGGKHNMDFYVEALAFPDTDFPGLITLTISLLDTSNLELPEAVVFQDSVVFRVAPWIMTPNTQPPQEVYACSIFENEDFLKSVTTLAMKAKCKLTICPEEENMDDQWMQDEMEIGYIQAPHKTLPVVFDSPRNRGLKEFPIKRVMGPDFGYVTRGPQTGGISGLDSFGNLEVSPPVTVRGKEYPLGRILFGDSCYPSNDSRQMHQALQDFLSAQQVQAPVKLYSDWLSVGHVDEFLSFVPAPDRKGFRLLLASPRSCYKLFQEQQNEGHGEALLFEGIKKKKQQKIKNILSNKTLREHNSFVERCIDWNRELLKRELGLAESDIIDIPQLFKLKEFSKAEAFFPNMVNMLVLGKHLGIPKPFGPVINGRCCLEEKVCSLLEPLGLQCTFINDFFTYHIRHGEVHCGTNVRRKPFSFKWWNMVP
row,IC50 [nM],Compound
1,122,"COc1cc(C(=O)N2[C@H]3CC[C@@H]2[C@H](N)C3)cc2nc(-c3cc4ccc5cc4n3CCCCCCNC(=O)c3ncccc3-5)n(C)c12 [Example 98, 17-[5-[(1~{R},2~{R},4~{S})-2-amino-7-azabicyclo[2.2.1]heptane-7-carbonyl]-7-methoxy-1-methyl-benzimidazol-2-yl]-6,9,16-triazatetracyclo[14.5.2.0^{2,7}.0^{19,23}] tricosa-1(22),2,4,6,17,19(23),20-heptaen-8-one]"
2,22,"CO[C@@H]1CCN(C(=O)c2cc(F)c3c(c2)nc(-c2cc4ccc5nc4n2CCCCCc2nc(Cl)ccc2C(=O)N[C@@H]5C)n3C2CC2)C[C@@H]1N [Example 789, (2~{R})-17-[5-[(3~{S},4~{R})-3-amino-4-methoxy-piperidine-1-carbonyl]-1-cyclopropyl-7-fluoro-benzimidazol-2-yl]-8-chloro-2-methyl-3,9,16,22-tetrazatetracyclo[14.5.2.0^ {5,10}.0^{19,23}]tricosa-1(21),5(10),6,8,17,19,22-heptaen-4-one]"
3,553,"COc1cc(C(=O)N2[C@H]3CC[C@@H]2[C@H](N)C3)cc2nc(-c3cc4ccc5nc4n3CCCCc3cccc(n3)C(=O)N[C@@H]5C)n(C)c12 [Example 37, (2~{R})-15-[5-[(1~{R},2~{R},4~{S})-2-amino-7-azabicyclo[2.2.1]heptane-7-carbonyl]-7-methoxy-1-methyl-benzimidazol-2-yl]-2-methyl-3,14,20,22-tetrazatetracyclo[12.5.2.1^{5,9}.0^{17,21}] docosa-1(20),5,7,9(22),15,17(21),18-heptaen-4-one]"
4,96,"COc1cc(C(=O)N2CC[C@@H](OC)[C@@H](N)C2)cc2nc(-c3cc4ccc5nc4n3CC(F)(F)CCCC[C@](C)(C(F)(F)F)C(=O)N[C@@H]5C)n(C)c12 [Example 733, (8~{S},11~{R})-17-[5-[(3~ {S},4~{R})-3-amino-4-methoxy-piperidine-1-carbonyl]-7-methoxy-1-methyl-benzimidazol-2-yl]-3,3-difluoro-8,11-dimethyl-8-(trifluoromethyl)-1,10,19-triazatricyclo[10.5.2.0^ {15,18}]nonadeca-12(19),13,15(18),16-tetraen-9-one]"
5,119,"COc1cc(C(=O)N[C@H]2CNCC[C@@H]2F)cc2nc(-c3cc4ccc5nc4n3C[C@@H]3[C@@H](CCCC(C)(C)C(=O)N[C@@H]5C)C3(F)F)n(C)c12 (single isomer, unassigned) [Example 365, 2-[(3˜{S},5˜{R},12˜{R})-4,4-difluoro-9,9,12-trimethyl-10-oxo-1,11,20-triazatetracyclo[11.5.2.0^{3,5}.0^{16,19}]icosa-13(20),14,16(19),17-tetraen-18-yl]-˜{N}-[(3˜{S},4˜{S})-4-fluoro-3-piperidyl]-7-methoxy-1-methyl-benzimidazole-5-carboxamide]"
6,74,"COc1cc(C(=O)N[C@H]2CNCC[C@@H]2F)cc2nc(-c3cc4ccc5nc4n3CCCCCc3c(noc3C)C(=O)N[C@@H]5C)n(C)c12 [Example 398, 2-[(2~{R})-2,8-dimethyl-4-oxo-7-oxa-3,6,15,21-tetrazatetracyclo[13.5.2.0^{5,9}.0^{18,22}]docosa-1(21),5,8,16,18(22),19-hexaen-16-yl]-~{N}-[(3~{S},4~{S})-4-fluoro-3-piperidyl]-7-methoxy-1-methyl-benzimidazole-5-carboxamide]"
7,372,"COc1cc(C(=O)N2[C@H]3CC[C@@H]2[C@H](N)C3)cc2nc(-c3cc4ccc5nc4n3CCCCCCn3ccc(n3)C(=O)N[C@@H]5C)c(C)n12 [Example 36, (2~{R})-16-[7-[(1~{R},2~{R},4~{S})-2-amino-7-azabicyclo[2.2.1]heptane-7-carbonyl]-5-methoxy-3-methyl-imidazo[1,2-a]pyridin-2-yl]-2-methyl-3,8,15,21,23-pentazatetracyclo[13.5.2.1^{5,8}.0^{18,22}] tricosa-1(21),5(23),6,16,18(22),19-hexaen-4-one]"
8,82,"COc1cc(C(=O)N[C@H]2CNCC[C@@H]2F)cc2nc(-c3cc4ccc5nc4n3CCCCCc3nccnc3C(=O)N[C@@H]5C)n(C)c12 [Example 241, ~{N}-[(3~{S},4~{S})-4-fluoro-3-piperidyl]-7-methoxy-1-methyl-2-[(2~{R})-2-methyl-4-oxo-3,6,9,16,22-pentazatetracyclo[14.5.2.0^{5,10}.0^{19, 23}]tricosa-1(21),5(10),6,8,17,19,22-heptaen-17-yl]benzimidazole-5-carboxamide]"
9,31,"C[C@H]1NC(=O)[C@@H]2C[C@@]2(F)CC[C@@H]2C[C@@H]2Cn2c(-c3nc4cc(C(=O)N5C[C@H](N)[C@@H]6CC[C@H]5C6)cc(F)c4n3C3CC3)cc3ccc1nc32 [Example 918, (3~{S},5~{R},8~{S},10~{S}, 13~{R})-19-[5-[(1~{S), 4~{R},5~{R})-4-amino-2-azabicyclo[3.2.1]octane-2-carbonyl]-1-cyclopropyl-7-fluoro-benzimidazol-2-yl]-8-fluoro-13-methyl-1,12,21-triazapentacyclo[12.5.2.0^ {3,5}.0^{8,10}.0^{17,20}] henicosa-14(21),15, 17(20),18-tetraen-11-one]"
10,255,"COc1cc(C(=O)N2C[C@H]3CCCN[C@H]3C2)cc2nc(-c3cc4ccc5nc4n3CCCCCCC(C)(C)C(=O)N[C@@H]5C)n(C)c12 [Example 80, (11~{R})-17-[5-[(4~{a}~{R},7~{a}~{R})-1,2,3,4,4~{a},5,7,7~{a}-octahydropyrrolo[3,4-b]pyridine-6-carbonyl]-7-methoxy-1-methyl-benzimidazol-2-yl]-8,8,11-trimethyl-1,10,19-triazatricyclo[10.5.2.0^{15,18}]nonadeca-12(19),13,15(18),16-tetraen-9-one]"
11,24,"C[C@H]1NC(=O)[C@@H]2C[C@H]2CCCCCn2c(-c3nc4cc(C(=O)N[C@H]5CNCC[C@@H]5F)c(F)c(F)c4n3C3CC3)cc3ccc1nc32 (single isomer, unassigned) [Example 275, 1-cyclopropyl-6,7-difluoro-˜{N}-[(3˜{S},4˜{S})-4-fluoro-3-piperidyl]-2-[(2˜{R},5˜{R},7˜{R})-2-methyl-4-oxo-3,13,19-triazatetracyclo[11.5.2.0^{5,7}.0^{16,20}]icosa-1(19),14,16(20),17-tetraen-14-yl]benzimidazole-5-carboxamide]"
12,270,"COc1cc(C(=O)N2CC[C@@H](OC(F)F)[C@@H](N)C2)cc2nc(-c3cc4ccc5nc4n3CC(F)(F)CCCC[C@@](C)(C(F)(F)F)C(=O)N[C@@H]5C)n(C)c12 [Example 730, (8~{R},11~{R})-17-[5-[(3~ {S},4~{R})-3-amino-4-(difluoromethoxy)piperidine-1-carbonyl]-7-methoxy-1-methyl-benzimidazol-2-yl]-3,3-difluoro-8,11-dimethyl-8-(trifluoromethyl)-1,10,19-triazatricyclo [10.5.2.0^{15,18}]nonadeca-12(19),13,15(18),16-tetraen-9-one]"
13,2040,"C[C@H]1NC(=O)[C@H]2C[C@@H]2CC[C@@H]2C[C@@H]2Cn2c(-c3nc4cc(C(=O)N[C@H]5CNCC[C@@H]5F)c(F)cc4n3C)cc3ccc1nc32 [Example 379, 6-fluoro-~{N}-[(3~{S),4~{S})-4-fluoro-3-piperidyl]-1-methyl-2-[(3~{S},5~{R},8~{S},10~{S},13~{R})-13-methyl-11-oxo-1,12,21-triazapentacyclo[12.5.2.0^{3,5}.0^{8,10}.0^ {17,20}]henicosa-14(21),15,17(20),18-tetraen-19-yl]benzimidazole-5-carboxamide]"
